Target: FP receptor (Homo sapiens (Human), UniProt P43088)
Assay: In vitro test of inhibition of human FP receptor activity (PGF2α-induced calcium flux in FP-expressing CHEM1 cells)
Assay type: cell-based
Settings: PGF2α-induced (2 nM) calcium flux in FP-expressing CHEM1 cells; some as mean values from multiple determinations
Text: Table 1 below lists the IC50 values from this assay for individual working examples of the invention (some as mean values from multiple independent individual determinations): […]

Chain of FP receptor (P43088 whole entry): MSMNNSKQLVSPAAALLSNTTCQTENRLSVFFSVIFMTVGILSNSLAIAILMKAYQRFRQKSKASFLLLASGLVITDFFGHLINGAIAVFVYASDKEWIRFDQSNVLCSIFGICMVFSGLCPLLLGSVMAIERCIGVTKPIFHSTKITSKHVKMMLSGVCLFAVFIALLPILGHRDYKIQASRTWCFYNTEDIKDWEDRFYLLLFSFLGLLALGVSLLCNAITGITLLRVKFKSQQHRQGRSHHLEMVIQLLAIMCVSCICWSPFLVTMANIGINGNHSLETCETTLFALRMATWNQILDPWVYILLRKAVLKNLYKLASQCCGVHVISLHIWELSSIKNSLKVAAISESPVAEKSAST

| Structure (SMILES) | IC50 [nM] |
| --- | --- |
| Cc1c(-c2ccccc2)nc2ccc(Br)cc2c1C(=O)NCC(CCC(=O)O)c1ccccc1OC(F)(F)F (racemic) [Example 209, (+/−)-5-{[(6-Bromo-3-methyl-2-phenylquinolin-4-yl)carbonyl]amino}-4-[2-(trifluoromethoxy)phenyl]pentanoic Acid] | 1.8 |
| O=C(O)CCC(CNC(=O)c1c(Cl)c(-c2ccccc2)nc2ccc(Br)cc12)c1ccccc1Cl (racemic) [Example 212, (+/−)-5-{[(6-Bromo-3-chloro-2-phenylquinolin-4-yl)carbonyl]amino}-4-(2-chlorophenyl)pentanoic Acid] | 6.6 |
| O=C(O)CCC(CNC(=O)c1c(Cl)c(-c2ccccc2)nc2ccc(Br)cc12)c1ccccc1C(F)(F)F (racemic) [Example 215, (+/−)-5-{[(6-Bromo-3-chloro-2-phenylquinolin-4-yl)carbonyl]amino}-4-[2-(trifluoromethyl)phenyl]pentanoic Acid] | 5.4 |
| C#Cc1ccc2nc(-c3ccccc3)c(C)c(C(=O)NCC(CCC(=O)O)c3ccccc3Cl)c2c1 (racemic) [Example 218, (+/−)-4-(2-Chlorophenyl)-5-{[(6-ethynyl-3-methyl-2-phenylquinolin-4-yl)carbonyl]amino}pentanoic Acid] | 13 |
| O=C(O)CCC(CNC(=O)c1c(Cl)c(-c2ccccc2)nc2ccc(Br)cc12)c1c(F)ccc(F)c1Cl (racemic) [Example 221, (+/−)-5-{[(6-Bromo-3-chloro-2-phenylquinolin-4-yl)carbonyl]amino}-4-(2-chloro-3,6-difluorophenyl)pentanoic Acid] | 2.4 |
| Cc1c(-c2ccccc2)nc2ccc(Br)cc2c1C(=O)NCC(CCC(=O)O)c1ccccn1 (racemic) [Example 224, (+/−)-5-{[(6-Bromo-3-methyl-2-phenylquinolin-4-yl)carbonyl]amino}-4-(pyridin-2-yl)pentanoic Acid] | 100 |
| Cc1c(-c2ccccc2)nc2ccc(Br)cc2c1C(=O)NCC(CCC(=O)O)c1c(F)cccc1C(F)(F)F (racemic) [Example 225, (+/−)-5-{[(6-Bromo-3-methyl-2-phenylquinolin-4-yl)carbonyl]amino}-4-[2-fluoro-6-(trifluoromethyl)phenyl]pentanoic Acid] | 4.7 |
| Cc1c(-c2ccccc2)nc2ccc(Br)cc2c1C(=O)NCC(CCC(=O)O)c1c(F)c(F)cc(F)c1F (racemic) [Example 228, (+/−)-5-{[(6-Bromo-3-methyl-2-phenylquinolin-4-yl)carbonyl]amino}-4-(2,3,5,6-tetrafluorophenyl)pentanoic Acid] | 4.2 |
| Cc1c(-c2ccccc2)nc2ccc(Br)cc2c1C(=O)NCC(CCC(=O)O)c1cc(F)cc(F)c1F (racemic) [Example 231, (+/−)-5-{[(6-Bromo-3-methyl-2-phenylquinolin-4-yl)carbonyl]amino}-4-(2,3,5-trifluorophenyl)pentanoic Acid] | 22 |
| Cc1c(-c2ccccc2)nc2ccc(Br)cc2c1C(=O)NCC(CCC(=O)O)c1c(Cl)ccc(Cl)c1Cl (racemic) [Example 234, (+/−)-5-{[(6-Bromo-3-methyl-2-phenylquinolin-4-yl)carbonyl]amino}-4-(2,3,6-trichlorophenyl)pentanoic Acid] | 7.2 |
| Cc1c(-c2ccccc2)nc2ccc(Br)cc2c1C(=O)NCC(C)(CCCC(=O)O)c1ccccc1Cl (racemic) [Example 240, (+/−)-6-{[(6-Bromo-3-methyl-2-phenylquinolin-4-yl)carbonyl]amino}-5-(2-chlorophenyl)-5-methylhexanoic Acid] | 24 |
| Cc1c(-c2ccccc2)nc2ccc(Br)cc2c1C(=O)NCC(C)(CCCC(=O)O)c1ccccc1 (racemic) [Example 243, (+/−)-6-{[(6-Bromo-3-methyl-2-phenylquinolin-4-yl)carbonyl]amino}-5-methyl-5-phenylhexanoic Acid] | 31 |
| Cc1c(-c2ccccc2)nc2ccc(Br)cc2c1C(=O)NCC(C(=O)O)c1ccc(F)cc1 (single isomer, unassigned) [Example 11, 3-{[(6-Bromo-3-methyl-2-phenylquinolin-4-yl)carbonyl]amino}-2-(4-fluorophenyl)propanoic Acid] | 470 |
| Cc1c(-c2ccccc2)nc2ccc(Br)cc2c1C(=O)NCC(C(=O)O)c1ccc(F)cc1 (single isomer, unassigned) [Example 12, 3-{[(6-Bromo-3-methyl-2-phenylquinolin-4-yl)carbonyl]amino}-2-(4-fluorophenyl)propanoic Acid] | 180 |
| Cc1c(-c2ccccc2)nc2ccc(Br)cc2c1C(=O)NCC(C(=O)O)c1ccc2c(c1)OCO2 (single isomer, unassigned) [Example 24, 2-(1,3-Benzodioxol-5-yl)-3-{[(6-bromo-3-methyl-2-phenylquinolin-4-yl)carbonyl]amino}propanoic Acid] | 580 |
| Cc1c(-c2ccccc2)nc2ccc(Br)cc2c1C(=O)NCC(C(=O)O)c1ccc2c(c1)OCO2 (single isomer, unassigned) [Example 25, 2-(1,3-Benzodioxol-5-yl)-3-{[(6-bromo-3-methyl-2-phenylquinolin-4-yl)carbonyl]amino}propanoic Acid] | > 1000 |
| Cc1c(-c2ccccc2)nc2ccc(Br)cc2c1C(=O)NCC(C)(C(=O)O)c1ncccc1Cl (single isomer, unassigned) [Example 27, 3-{[(6-Bromo-3-methyl-2-phenylquinolin-4-yl)carbonyl]amino}-2-(3-chloropyridin-2-yl)-2-methylpropanoic Acid] | 53 |
| Cc1c(-c2ccccc2)nc2ccc(Br)cc2c1C(=O)NCC(C)(C(=O)O)c1ncccc1Cl (single isomer, unassigned) [Example 28, 3-{[(6-Bromo-3-methyl-2-phenylquinolin-4-yl)carbonyl]amino}-2-(3-chloropyridin-2-yl)-2-methylpropanoic Acid] | 100 |
| Cc1c(-c2ccccc2)nc2ccc(Br)cc2c1C(=O)NCC(CC(=O)O)c1cccc(Cl)c1 (single isomer, unassigned) [Example 73, 4-{[(6-Bromo-3-methyl-2-phenylquinolin-4-yl)carbonyl]amino}-3-(3-chlorophenyl)butanoic Acid] | 86 |
| Cc1c(-c2ccccc2)nc2ccc(Br)cc2c1C(=O)NCC(CC(=O)O)c1cccc(Cl)c1 (single isomer, unassigned) [Example 74, 4-{[(6-Bromo-3-methyl-2-phenylquinolin-4-yl)carbonyl]amino}-3-(3-chlorophenyl)butanoic Acid] | 79 |
| Cc1c(-c2ccccc2)nc2ccc(Br)cc2c1C(=O)NCC(CC(=O)O)c1c(Cl)cccc1Cl (single isomer, unassigned) [Example 79, 4-{[(6-Bromo-3-methyl-2-phenylquinolin-4-yl)carbonyl]amino}-3-(2,6-dichlorophenyl)butanoic Acid] | 140 |
| Cc1c(-c2ccccc2)nc2ccc(Br)cc2c1C(=O)NCC(CC(=O)O)c1c(Cl)cccc1Cl (single isomer, unassigned) [Example 80, 4-{[(6-Bromo-3-methyl-2-phenylquinolin-4-yl)carbonyl]amino}-3-(2,6-dichlorophenyl)butanoic Acid] | 51 |
| Cc1cccc(C(CNC(=O)c2c(C)c(-c3ccccc3)nc3ccc(Br)cc23)CC(=O)O)c1 (single isomer, unassigned) [Example 94, 4-{[(6-Bromo-3-methyl-2-phenylquinolin-4-yl)carbonyl]amino}-3-(3-methylphenyl)butanoic Acid] | 96 |

From US11136296B2, “Substituted N-arylethyl-2-arylquinoline-4-carboxamides and use thereof” (Bayer Aktiengesellschaft, priority 2017, dated 2021)
